Source: US8765763B2, “Substituted piperazines as CGRP antagonists” (Boehringer Ingelheim International GmbH, priority 2009, dated 2014)

What follows are molecules tested against T1, human CGRP receptor (Homo sapiens, UniProt O60894+Q16602) (assay: Binding studies with SK-N-MC cells (expressing the human CGRP receptor), 125I-iodotyrosyl-CGRP displacement on SK-N-MC membranes). Details: 50 pM 125I-iodotyrosyl-CGRP, 180 minutes at ambient temperature.
T1 construct: SK-N-MC membranes (˜20 μg protein) are incubated for 180 minutes at ambient temperature; endogenous in cells; host or cells: SK-N-MC cells (membranes)
T1 sequence (Q16602 23-461): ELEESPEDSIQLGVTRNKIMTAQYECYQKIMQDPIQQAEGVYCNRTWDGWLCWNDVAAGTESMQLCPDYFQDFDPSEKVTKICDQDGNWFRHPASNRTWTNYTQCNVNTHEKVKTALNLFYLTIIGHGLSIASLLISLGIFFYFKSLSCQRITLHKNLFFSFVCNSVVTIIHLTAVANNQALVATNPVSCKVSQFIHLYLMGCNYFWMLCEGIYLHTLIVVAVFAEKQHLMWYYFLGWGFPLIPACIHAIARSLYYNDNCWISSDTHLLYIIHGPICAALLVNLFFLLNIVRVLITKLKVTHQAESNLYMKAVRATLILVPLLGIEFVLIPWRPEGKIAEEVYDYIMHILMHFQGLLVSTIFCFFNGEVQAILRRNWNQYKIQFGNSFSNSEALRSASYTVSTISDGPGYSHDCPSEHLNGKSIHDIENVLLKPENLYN
T1 sequence (O60894 27-148): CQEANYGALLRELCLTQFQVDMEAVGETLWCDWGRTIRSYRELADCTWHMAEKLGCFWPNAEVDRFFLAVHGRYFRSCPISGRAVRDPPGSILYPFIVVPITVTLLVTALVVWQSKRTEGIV
Protocol: A. Binding Studies with SK-N-MC Cells (Expressing the Human CGRP Receptor)
SK-N-MC membranes (˜20 μg protein) are incubated for 180 minutes at ambient temperature with 50 pM ^125I-iodotyrosyl-Calcitonin-Gene-Related Peptide and increasing concentrations of the test substances in a total volume of 250 μl (assay buffer: 10 mM tris, 50 mM NaCl, 5 mM MgCl2, 1 mM EDTA, pH=7.4). The incubation is ended by rapid filtration through GF/B-glass fibre filters treated with polyethyleneimine (0.1%) using a cell harvester. The protein-bound radioactivity is measured using a gamma counter. Non-specific binding is defined as the bound radioactivity after the presence of 1 μM BIBN4096BS during incubation.
The concentration binding curves are analysed using computer-aided non-linear curve fitting.
A Ki of 0.72 nM was found for `O=C(CN1C(=O)[C@H](CC2CCCCCC2)NCC1c1cc(F)cc(F)c1)Nc1ccc2c(c1)C[C@@]1(C2)C(=O)Nc2ncccc21` (single isomer, unassigned) [Example 13 Diastereomer 1] in this work.
A Ki of 0.71 nM was found for `O=C(CN1C(=O)[C@H](CC2CCCCCC2)NCC1c1cc(F)cc(F)c1)Nc1ccc2c(c1)C[C@@]1(C2)C(=O)Nc2ncccc21` (single isomer, unassigned) [Example 13 Diastereomer 2] in this work.
A Ki of 0.1 nM was found for `O=C(CN1C(=O)C(C2CCOCC2)NCC1c1cc(F)cc(F)c1)Nc1ccc2c(c1)C[C@@]1(C2)C(=O)Nc2ncccc21` (single isomer, unassigned) [Example 15a] in this work.
A Ki of 0.39 nM was found for `O=C(CN1C(=O)C(C2CCOCC2)NCC1c1cc(F)cc(F)c1)Nc1ccc2c(c1)C[C@@]1(C2)C(=O)Nc2ncccc21` (single isomer, unassigned) [Example 15b] in this work.
A Ki of 5.4 nM was found for `O=C(CN1C(=O)[C@@H](CC2CCCCCC2)NCC1c1cc(F)cc(F)c1)Nc1ccc2c(c1)C[C@@]1(C2)C(=O)Nc2ncccc21` (single isomer, unassigned) [Example 16a] in this work.
A Ki of 0.13 nM was found for `O=C(CN1C(=O)[C@@H](CC2CCCCCC2)NCC1c1cc(F)cc(F)c1)Nc1ccc2c(c1)C[C@@]1(C2)C(=O)Nc2ncccc21` (single isomer, unassigned) [Example 16b] in this work.
A Ki of 0.03 nM was found for `O=C(CN1C(=O)C2(COCCOC2)NC[C@H]1c1cc(F)cc(F)c1)Nc1ccc2c(c1)C[C@@]1(C2)C(=O)Nc2ncccc21` [Example 1a, 2-((R)-3-(3,5-difluorophenyl)-5-oxo-8,11-dioxa-1,4-diazaspiro[5.6]dodecan-4-yl)-N-((R)-2′-oxo-1,1′,2′,3-tetrahydrospiro[indene-2,3′-pyrrolo[2,3-b]pyridin]-5-yl)acetamide] in this work.
A Ki of 1.77 nM was found for `O=C(CN1C(=O)C2(COCCOC2)NC[C@H]1c1cc(F)cc(F)c1)Nc1ccc2c(c1)C[C@]1(C2)C(=O)Nc2ncccc21` [Example 1b, 2-((R)-3-(3,5-difluorophenyl)-5-oxo-8,11-dioxa-1,4-diazaspiro[5.6]dodecan-4-yl)-N-((S)-2′-oxo-1,1′,2′,3-tetrahydrospiro[inden-2,3′-pyrrolo[2,3-b]pyridin]-5-yl)acetamide] in this work.
A Ki of 1.02 nM was found for `O=C(CN1C(=O)C2(COCCOC2)NCC1c1cc(F)cc(F)c1)Nc1cc2c(cn1)CC1(C2)C(=O)Nc2ncccc21` (stereo not shown) [Example 2] in this work.
A Ki of 0.72 nM was found for `O=C(CN1C(=O)C(CC2CCCCCC2)NCC1c1cc(F)cc(F)c1)Nc1ccc2c(c1)CC1(C2)C(=O)Nc2ncccc21` (stereo not shown) [Example 3] in this work.
A Ki of 0.07 nM was found for `O=C(CN1C(=O)C2(CCC3(CCOCC3)CC2)NC[C@H]1c1cc(F)cc(F)c1)Nc1ccc2c(c1)C[C@@]1(C2)C(=O)Nc2ncccc21` [Example 14, 2-((R)-3-(3,5-difluoro-phenyl)-5-oxo-12-oxa-1,4-diaza-dispiro[5.2.5.2]hexadecan-4-yl)-N-((R)-2′-oxo-1,1′,2′,3-tetrahydrospiro[inden-2,3′-pyrrolo[2,3-b]pyridin]-5-yl)acetamide] in this work.
A Ki of 0.03 nM was found for `CN1C[C@@H](c2cc(F)cc(F)c2)N(CC(=O)Nc2ccc3c(c2)C[C@@]2(C3)C(=O)Nc3ncccc32)C(=O)C12COCCOC2` [Example 17, 2-((R)-3-(3,5-difluorophenyl)-1-methyl-5-oxo-8,11-dioxa-1,4-diazaspiro[5.6]dodecan-4-yl)-N-((R)-2′-oxo-1,1′,2′,3-tetrahydrospiro[inden-2,3′-pyrrolo[2,3-b]pyridin]-5-yl)acetamide] in this work.
A Ki of 0.84 nM was found for `COc1cccc(C2CNC3(COCCOC3)C(=O)N2CC(=O)Nc2ccc3c(c2)C[C@@]2(C3)C(=O)Nc3ncccc32)c1` (stereo partly drawn) [Example 18, 2-(3-(3-methoxyphenyl)-5-oxo-8,11-dioxa-1,4-diazaspiro[5.6]dodecan-4-yl)-N—((R)-2′-oxo-1′,2′,3-tetrahydrospiro[inden-2,3′-pyrrolo[2,3-b]pyridin]-5-yl)acetamide] in this work.
A Ki of 1.41 nM was found for `O=C(CN1C(=O)C2(COCCOC2)NC[C@H]1c1cc(F)cc(F)c1)Nc1cc2c(cc1Cl)CC1(C2)C(=O)Nc2ncccc21` (stereo partly drawn) [Example 19, N-(5-chloro-2′-oxo-1,1′,2′,3-tetrahydrospiro[inden-2,3′-pyrrolo[2,3-b]pyridin]-6-yl)-2-((R)-3-(3,5-difluorophenyl)-5-oxo-8,11-dioxa-1,4-diazaspiro[5.6]dodecan-4-yl)acetamide] in this work.
A Ki of 0.96 nM was found for `CC(C)(C)OC(=O)N1C[C@@H](c2ccccc2)N(CC(=O)Nc2ccc3c(c2)C[C@@]2(C3)C(=O)Nc3ncccc32)C(=O)C12COCCOC2` [Example 20, (R)-tert-butyl 5-oxo-4-(2-oxo-2-((R)-2′-oxo-1,1′,2′,3-tetrahydrospiro[inden-2,3′-pyrrolo[2,3-b]pyridin]-5-ylamino)ethyl)-3-phenyl-8,11-dioxa-1,4-diazaspiro[5.6]dodecane-1-carboxylate] in this work.
A Ki of 0.44 nM was found for `O=C(CN1C(=O)C2(COCCOC2)NC[C@H]1c1ccccc1)Nc1ccc2c(c1)C[C@@]1(C2)C(=O)Nc2ncccc21` [Example 21, N—((R)-2′-oxo-1,1′,2′,3-tetrahydrospiro[inden-2,3′-pyrrolo[2,3-b]pyridin]-5-yl)-2-((R)-5-oxo-3-phenyl-8,11-dioxa-1,4-diazaspiro[5.6]dodecan-4-yl)acetamide] in this work.
A Ki of 0.11 nM was found for `O=C(CN1C(=O)C2(COCCOC2)NC[C@H]1c1ccc(F)cc1)Nc1ccc2c(c1)C[C@@]1(C2)C(=O)Nc2ncccc21` [Example 22, 2-((R)-3-(4-fluorophenyl)-5-oxo-8,11-dioxa-1,4-diazaspiro[5.6]dodecan-4-yl)-N-((R)-2′-oxo-1,1′,2′,3-tetrahydrospiro[inden-2,3′-pyrrolo[2,3-b]pyridin]-5-yl)acetamide] in this work.
A Ki of 0.05 nM was found for `O=C(CN1C(=O)C2(COCCOC2)NCC1c1cccc(F)c1)Nc1ccc2c(c1)C[C@@]1(C2)C(=O)Nc2ncccc21` (stereo partly drawn) [Example 23, 2-(3-(3-fluorophenyl)-5-oxo-8,11-dioxa-1,4-diazaspiro[5.6]dodecan-4-yl)-N—((R)-2′-oxo-1,1′,2′,3-tetrahydrospiro[inden-2,3′-pyrrolo[2,3-b]pyridin]-5-yl)acetamide] in this work.
A Ki of 0.07 nM was found for `O=C(CN1C(=O)C2(COCCOC2)NC[C@H]1c1cc(F)cc(F)c1)Nc1cnc2c(c1)CC1(C2)C(=O)Nc2ncccc21` (stereo partly drawn) [Example 24, 2-((R)-3-(3,5-difluorophenyl)-5-oxo-8,11-dioxa-1,4-diazaspiro[5.6]dodecan-4-yl)-N-(2′-oxo-1′,2′,5,7-tetrahydrospiro[cyclopenta[b]pyridin-6,3′-pyrrolo[2,3-b]pyridin]-3-yl)acetamide] in this work.
